Test results: patent US5925769A, “Acetylenic 1,5-diarylpyrazoles as antiinflammatory agents” (Ortho Pharmaceutical, Corp., priority 1998, dated 1999)

How the values were obtained:
[1] = biological target: T1, Sheep seminal vesicle (SSV) cyclooxygenase (Ovis aries, UniProt P05979); assay: Procedure I: inhibition of sheep seminal vesicle (SSV) cyclooxygenase; assay type: biochemical; settings: SSV cyclooxygenase; read-out: Proc. I IC50
T1 construct: Sheep seminal vesicle (SSV) cyclooxygenase (95% pure); purchased Biomol (Plymouth Meeting, PA); host or cells: sheep seminal vesicle
T1 sequence (P05979 25-600): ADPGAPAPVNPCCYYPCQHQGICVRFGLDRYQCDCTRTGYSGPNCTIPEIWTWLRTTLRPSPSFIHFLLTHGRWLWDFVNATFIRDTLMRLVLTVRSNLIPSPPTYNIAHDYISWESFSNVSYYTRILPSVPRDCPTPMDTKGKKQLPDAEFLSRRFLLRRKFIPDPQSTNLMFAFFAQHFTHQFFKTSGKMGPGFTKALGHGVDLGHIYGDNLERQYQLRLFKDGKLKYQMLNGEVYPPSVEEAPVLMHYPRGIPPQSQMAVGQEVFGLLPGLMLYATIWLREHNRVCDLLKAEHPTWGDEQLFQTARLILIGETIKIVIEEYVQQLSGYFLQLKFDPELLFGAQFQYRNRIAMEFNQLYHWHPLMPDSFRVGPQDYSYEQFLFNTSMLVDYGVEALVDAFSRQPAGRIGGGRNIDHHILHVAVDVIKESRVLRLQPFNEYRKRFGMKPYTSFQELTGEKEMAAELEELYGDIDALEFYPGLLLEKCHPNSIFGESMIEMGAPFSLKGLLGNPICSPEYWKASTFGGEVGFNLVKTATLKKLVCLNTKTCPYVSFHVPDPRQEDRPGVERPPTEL
Outline: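 Turnover of [1-14C]-arachidonic acid by SSV cyclooxygenase ran 20 min after a 5 min preincubation at 37° C with test compound. Products (PGD2, PGE2, etc.) were extracted, resolved by TLC and quantified by radio-imaging; inhibition came from comparing curve areas with and without compound.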

5-LO = biological target: T2, 5-LO (Rattus norvegicus, UniProt P12527); assay: Procedure II: 5-LO activity (5-HETE) in broken RBL-1 cells (homogenate supernatant); assay type: biochemical; settings: RBL-1 broken cell supernatant; read-out: Proc. II 5-LO IC50
T2 construct: the supernatant was saved as the source of enzymes; endogenous in cells; host or cells: RBL-1 (rat basophilic leukemia) cells
T2 sequence (P12527 1-673): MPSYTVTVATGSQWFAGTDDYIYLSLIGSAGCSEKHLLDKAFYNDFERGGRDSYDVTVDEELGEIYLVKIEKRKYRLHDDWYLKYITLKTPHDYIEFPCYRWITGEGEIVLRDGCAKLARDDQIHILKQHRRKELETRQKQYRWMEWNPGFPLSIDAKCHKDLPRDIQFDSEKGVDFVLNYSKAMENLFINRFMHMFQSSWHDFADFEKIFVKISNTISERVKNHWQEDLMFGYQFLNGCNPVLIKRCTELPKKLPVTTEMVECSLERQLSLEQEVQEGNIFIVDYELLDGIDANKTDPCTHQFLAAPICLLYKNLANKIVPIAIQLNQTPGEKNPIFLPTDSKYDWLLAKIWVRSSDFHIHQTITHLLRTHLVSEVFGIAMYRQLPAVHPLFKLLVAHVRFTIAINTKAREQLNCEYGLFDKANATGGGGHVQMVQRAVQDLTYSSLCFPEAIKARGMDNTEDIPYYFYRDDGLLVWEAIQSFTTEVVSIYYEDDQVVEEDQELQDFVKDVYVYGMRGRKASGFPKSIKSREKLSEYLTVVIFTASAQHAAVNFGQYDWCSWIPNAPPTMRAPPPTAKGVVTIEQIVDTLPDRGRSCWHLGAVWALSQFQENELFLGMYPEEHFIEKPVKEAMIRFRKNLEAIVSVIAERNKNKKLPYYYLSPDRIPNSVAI
Outline: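 Supernatant from rat RBL-1 homogenate (9,220×g) was pre-incubated 5 min at 37 °C with 2 mM CaCl2 and compound or 1% DMSO, then with 1-^14C-arachidonic acid for 20 min at 37 °C.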

Structure (SMILES): COc1ccc(-n2nc(C#CCN(O)C(N)=O)cc2-c2ccc(C)cc2)cc1 [Cpd 1, N-Hydroxy-N-(1(1-(4-methoxyphenyl)-5-(4-methylphenyl)pyrazol-3-yl)-1-propyn-3-yl)urea]
- IC50 [1]: 1020 nM
- IC50 (5-LO): 70 nM
